Where two headings read alike, the source gives them in different places.
Assays:
E. coli [1] = assay: Respiratory/metabolic activity indicator labeling (2-NBDG uptake); type: cell-based; settings: overnight refrigerator stock culture; approximately 1 min of exposure to 1 μM
Description: (§1) Physiologic indicators of active bacteria include indicators of growth, responsiveness to external stimulus, transcription, translation, energy dependent activity, enzyme activity, and an intact permeability barrier. The indicators tested experimentally were grouped according to the following functional categories of physiologic states to which they are responsive, which included indicators of respiratory and metabolic activity, and membrane integrity.
(§2) 2-NBDG (Molecular Probes) is a fluorescent derivative (green channel) of D-glucose that is internalized by active bacteria.

S. maltophilia = assay: as above; type: cell-based; settings: overnight refrigerator culture; negative control (does not metabolize glucose)
Description: as §1, §2

H. influenzae = assay: as above; type: cell-based; settings: overnight refrigerator culture, viability independently verified
Description: as §1, §2

K. pneumoniae = assay: as above; type: cell-based; settings: overnight refrigerator stock culture; approximately 1 min of exposure to 1 μM
Description: as §1, §2

S. aureus = assay: as above; type: cell-based; settings: overnight refrigerator culture, viability independently verified
Description: as §1, §2

E. coli [2] = assay: Membrane potential indicator, red:green fluorescence ratio; type: cell-based; settings: O/N refrigerator stock vs CCCP-treated E. coli
Description: as §1
Active bacterial cells maintain a proton gradient across their cell membranes, creating a membrane potential that may be measured using fluorescent dyes. However, the dyes used in this study to evaluate membrane potential are toxic to bacteria and can only be used as an endpoint assay.
DiOC2(3) (Molecular Probes) is a dye that fluoresces in the red channel when it is highly concentrated and self-associates in cells with an intact membrane potential. […] The red:green fluorescence ratio is used to normalize the fluorescence results of cells with differing sizes. Carbonylcyanide-m-chlorophenylhydrazone (CCCP) is a proton ionophore that disrupts the proton gradient and was used to treat E. coli cells in an experimental sample that was compared to an untreated overnight refrigerator stock.

[3] = test system: Staphylococcus aureus (STAU); assay: MADM system resistance phenotype tests on respiratory specimens; type: cell-based; settings: for resistance phenotype result (S/R), MADM: ID STAU, MRSA by FOX
Description: (ABCC). Concurrent quantitative culture was performed on specimens.
Specimen preparation used a brief procedure to release bacteria, reduce imaging background, and suspend bacteria in a low ionic strength buffer. […] We rejected 10 samples with heavy interfering background when dilution to OD600=0.3 yielded organism counts inadequate for analysis. We rejected 7 samples for other technical deficiencies. The remaining 62 specimens were tested using the MADM system.
(§3) 20 μL samples of prepared specimen were pipetted into independent flowcell channels and a low-voltage electrical field was applied for 5 minutes. The electrical field concentrated bacteria onto a functional surface coating that immobilized the bacteria on the lower flowcell surface. Each flowcell channel received only one type of test reagent solution that contained a selective agent if required (only for channels used to test AB, sulbactam 32 μg/mL).
(§4) The instrument acquired images at 10-minutes intervals for 180 minutes, using 10 fields of view in each flowcell channel through a 20× objective. Imaging used darkfield illumination. Identification variables included response to selective agents (AB with sulbactam), cell morphology, growth morphology, and growth rate.
(§5) Identification algorithms applied to each individual immobilized bacterial cell. The system measured the amount of change in mass over time to compute growth rates. Identification consisted of computing and combining probability scores for morphology, response to selective media, and growth rates to produce a receiver operating characteristic curve (ROC) to derive classification criteria.

STAU = assay: MADM (BACcel) phenotype/sensitivity by growth analysis, surveillance mini-BAL; type: cell-based, S. aureus; settings: Spec# 008-D7, BACcel ID STAU, 1.11 × 10^6 CFU/ml
Description: (§6) Adult MICU patients with identified surrogate were included within 72 hours of intubation and if anticipated to require MV for >48 h. Moribund state or pregnancy were exclusions. Surveillance mini-BAL (Combicath, Plastimed) was performed on Day 1, 3, 5, 7 and 10 of MV. Samples were split and processed for both a) routine respiratory quantitative microbiological culture and sensitivity assays (>48 h result availability) and b) rapid (<8 hour) flowcell/surface-capture assays using the MADM system. Viable microorganisms were identified using growth analysis enhanced by a focused VAP antibody panel (S. aureus, P. aeruginosa, A. baumannii). Untypable organisms were also reported. Sensitivity was assessed using growth analysis. Attending physicians were blinded to MADM system results.
(§7) BAL sample were prepared, removing debris and separating microorganisms from other sample material. Sample microorganisms were introduced into a multichannel fluidic cassette as described elsewhere herein. Bacteria were concentrated and retained on the lower surface of all flowcells using low-voltage electrical field (5 min) Antibody labeling of bacteria in flowcells was used to aid identification.
(§8) The automated digital microscopy system was used to perform darkfield imaging of 10 fields of view every 10 minutes for 180 minutes in each flowcell channel. Initial epifluorescence imaging was also performed for antibody detection. […] Identification consisted of probability scores based on microorganism morphology and growth rates. Antibody labeling identification data was also incorporated. Observed microorganisms were then classified as STAU, PSAE, or non-target. Antibiotic responses were used to aid identification when appropriate. Quantitation was performed by counting identified microorganisms and computing original specimen CFU/mL.

[4] = test system: Staphylococcus aureus (SA); assay: Same-day blood culture MADM drug resistance phenotyping; type: cell-based; settings: SA in 6 μg/mL FOX, dark-field images over 3 hours (FIG. 10B)
Description: The MADM system used a custom microscope and pipetting robot, plus an evaluation system, as described herein. 32-channel disposable cassettes (FIG. 4A) enabled live microorganism immobilization for microscopy and fluid exchanges for different test agents. The microscope scanned 40 image fields in each flowcell channel, each channel having organisms extracted from about 3.5 μL of prepared inoculum.
Simulated blood specimens consisted of isolates spiked into 10 mL each of 29 aliquots of two short-fill CPD blood bank bags to make approximately 5 CFU/mL of bacterial target species, confirmed by quantitative culture. Spiked isolates included 14 Staphylococcus aureus (SA), 3 Pseudomonas aeruginosa (PA), or 12 non-target Gram-negative bacilli species. Dilution of each sample with 30 mL of modified TSB culture medium promoted growth. 20 additional control aliquots contained no spikes. 4-hour incubation at 35° C., followed with brief spin cleanup, ended with pellet resuspension into an electrokinetic buffer to make 1 mL samples for MADM system analysis. 20 μL sample aliquots were then pipetted into 14 cassette flowcells. A 5-minute low-voltage electrokinetic capture was performed to concentrate microorganisms on the lower surface of each flowcell where a capture coating immobilized the bacterial cells. […]

Enteric = assay: MADM (BACcel) phenotype/sensitivity by growth analysis, surveillance mini-BAL; type: cell-based; settings: Spec# 005-D7, BACcel ID Enteric, 1.26 × 10^5 CFU/ml
Description: as §6
BAL sample were prepared, removing debris and separating microorganisms from other sample material. Sample microorganisms were introduced into a multichannel fluidic cassette as described elsewhere herein. […]
The automated digital microscopy system was used to perform darkfield imaging of 10 fields of view every 10 minutes for 180 minutes in each flowcell channel. […] Quantitation was performed by counting identified microorganisms and computing original specimen CFU/mL.

Steno = assay: as above; type: cell-based, S. maltophilia
Description: as §6, §7, §8

[5] = test system: Acinetobacter spp. (ABCC); settings: ABCC-positive specimen (specimen name not given); culture result
Description: (§9) A total of 281 de-identified remnant respiratory specimens were collected from hospital and commercial sources. The specimens included 25 endotracheal aspirates (ETA) of unknown age obtained from a specimen vendor. Also included were 230 mini-bronchoalveolar lavage (mini-BAL) and 26 ETA specimens obtained from Denver Health Medical Center (DHMC). DHMC specimens were 7-21 days old. AST results were available for all mini-BAL specimens but not for ETA. Accompanying reports also included semi-quantitative ID used to select 92 bacteria-positive specimens for analysis using the MADM system. Targets included Pseudomonas aeruginosa, Acinetobacter baumannii complex, and Staphylococcus aureus. Controls used standard culturing methods (Cx).
(§10) These specimens were prepped for introduction into the MADM system. The system performed quantitative ID for Staphylococcus aureus (STAU), Pseudomonas aeruginosa (PSAE), and Acinetobacter spp. (ABCC). Concurrent quantitative culture was performed on specimens. The MADM system performed resistance phenotype tests on STAU-containing specimens for cefoxitin (FOX) MRSA phenotyping and clindamycin (CLI) resistance. The system tested ABCC- and PSAE-containing specimens for amikacin (AN) and imipenem (IMP) resistance.

[6] = test system: Acinetobacter spp. (ABCC); assay: MADM system resistance phenotype tests on respiratory specimens; type: cell-based, Acinetobacter sp.; settings: ABCC-positive specimen (specimen name not given); further: key: S: susceptible; R: resistant
Description: as §10
(§11) Specimen preparation used a brief procedure to release bacteria, reduce imaging background, and suspend bacteria in a low ionic strength buffer. […] The remaining 62 specimens were tested using the MADM system.
as §3, §4, §5

[7] = test system: Pseudomonas aeruginosa (PSAE); assay: as above; type: cell-based; settings: ID PSAE
Description: as §10, §11, §3, §4, §5

[8] = test system: Pseudomonas aeruginosa (PSAE); type: cell-based; settings: ID PSAE, culture result; further: key: S: susceptible; R: resistant
Description: as §9, §10

O=[N+]([O-])c1ccc(N[C@H]2C(O)O[C@H](CO)[C@@H](O)[C@@H]2O)c2nonc12 (some centres unmarked) [2-NBDG]
fluorescent labeling (E. coli [1]): fluorescently labeled
fluorescent labeling (S. maltophilia): did not fluoresce
fluorescent labeling (H. influenzae): did not fluoresce
fluorescent labeling (K. pneumoniae): fluorescently labeled
fluorescent labeling (S. aureus): did not fluoresce

CCN1/C(=C/C=C/c2oc3ccccc3[n+]2CC)Oc2ccccc21.[I-] [DiOC2(3)]
red:green fluorescence ratios (E. coli [2]): No significant difference

CO[C@@]1(NC(=O)Cc2cccs2)C(=O)N2C(C(=O)O)=C(COC(N)=O)CS[C@@H]21 [FOX, cefoxitin]
resistance phenotype result (S/R), MADM ([3]; specimen DH 425, Mini-BAL): R
resistance phenotype result (S/R), MADM ([3]; specimen DH 427, Mini-BAL): S
resistance phenotype result (S/R), MADM ([3]; specimen DH 439, Mini-BAL): R
resistance phenotype result (S/R), MADM ([3]; specimen DH 440, BAL): S
resistance phenotype result (S/R), MADM ([3]; specimen DH 457, BAL): S
resistance phenotype result (S/R), MADM ([3]; specimen DH 485, BAL): S
resistance phenotype result (S/R), MADM ([3]; specimen DH 509, BAL): S
resistance phenotype result (S/R), MADM ([3]; specimen DH 514, Mini-BAL): S
resistance phenotype result (S/R), MADM ([3]; specimen DH 543, BAL): S
resistance phenotype result (S/R), MADM ([3]; specimen DH 550, BAL): S
resistance phenotype result (S/R), MADM ([3]; specimen DH 556, Mini-BAL): S
resistance phenotype result (S/R), MADM ([3]; specimen T12, ETA): R
MRSA/MSSA call by FOX in the MADM system ([3]; the one discordant STAU sample): MRSA
Phenotype, sensitivity (STAU): FOX - R
clone growth in drug [4]: growth indicating MRSA phenotype
Phenotype, sensitivity (growth in antibiotic) (Enteric): all growth
Phenotype, sensitivity (growth in antibiotic) (Steno; Spec# 006-D1, BACcel ID Steno, 7.68 × 10^5 CFU/ml): growth, TZP-
Phenotype, sensitivity (growth in antibiotic) (Steno; Spec# 006-D3, BACcel ID Steno, 1.60 × 10^4 CFU/ml): growth, TZP-

C[C@@H](O)[C@H]1C(=O)N2C(C(=O)O)=C(SCCN=CN)C[C@H]12 [IMP, imipenem]
resistance phenotype result (S/R), Cx [5]: S
resistance phenotype result (S/R), MADM [6]: S
resistance phenotype result (S/R), MADM ([7]; specimen DH 430, Mini-BAL): S
resistance phenotype result (S/R), MADM ([7]; specimen DH 554, BAL): S
resistance phenotype result (S/R), MADM ([7]; specimen DH 641, Mini-BAL): S
resistance phenotype result (S/R), Cx ([8]; specimen DH 430, Mini-BAL): S
resistance phenotype result (S/R), Cx ([8]; specimen DH 554, BAL): S
resistance phenotype result (S/R), Cx ([8]; specimen DH 641, Mini-BAL): S

Source: patent publication US20160010138A1, “RAPID DETERMINATION OF MICROBIAL DROWTH AND ANTIMICROBIAL SUSEPTABILITY” (priority 2013, published 2016)
